Assay results: US20260258035A1, “FIVE-MEMBERED AND SIX-MEMBERED NITROGEN-CONTAINING COMPOUND, AND INTERMEDIATE, PREPARATION METHOD AND USE THEREOF” (HANGZHOU SYNRX THERAPEUTICS BIOMEDICAL TECHNOLOGY CO., LTD., priority 2022, published 2026)

Assays:
PARG = PARG (Homo sapiens, UniProt Q86W56); assay: Biochemical assay (PARG, TFMU-ADPr substrate); conditions: PARG, TFMU-ADPr substrate
HCC1806 = assay: Cell viability assay (CellTiter-Glo); format: cell-based, Human; conditions: Homo sapiens, HCC1806, 168 h, HCC1806, 7 days, CellTiter-Glo; read-out: IC50 (nM) in cell viability assay

Sequence of PARG (Q86W56 whole entry): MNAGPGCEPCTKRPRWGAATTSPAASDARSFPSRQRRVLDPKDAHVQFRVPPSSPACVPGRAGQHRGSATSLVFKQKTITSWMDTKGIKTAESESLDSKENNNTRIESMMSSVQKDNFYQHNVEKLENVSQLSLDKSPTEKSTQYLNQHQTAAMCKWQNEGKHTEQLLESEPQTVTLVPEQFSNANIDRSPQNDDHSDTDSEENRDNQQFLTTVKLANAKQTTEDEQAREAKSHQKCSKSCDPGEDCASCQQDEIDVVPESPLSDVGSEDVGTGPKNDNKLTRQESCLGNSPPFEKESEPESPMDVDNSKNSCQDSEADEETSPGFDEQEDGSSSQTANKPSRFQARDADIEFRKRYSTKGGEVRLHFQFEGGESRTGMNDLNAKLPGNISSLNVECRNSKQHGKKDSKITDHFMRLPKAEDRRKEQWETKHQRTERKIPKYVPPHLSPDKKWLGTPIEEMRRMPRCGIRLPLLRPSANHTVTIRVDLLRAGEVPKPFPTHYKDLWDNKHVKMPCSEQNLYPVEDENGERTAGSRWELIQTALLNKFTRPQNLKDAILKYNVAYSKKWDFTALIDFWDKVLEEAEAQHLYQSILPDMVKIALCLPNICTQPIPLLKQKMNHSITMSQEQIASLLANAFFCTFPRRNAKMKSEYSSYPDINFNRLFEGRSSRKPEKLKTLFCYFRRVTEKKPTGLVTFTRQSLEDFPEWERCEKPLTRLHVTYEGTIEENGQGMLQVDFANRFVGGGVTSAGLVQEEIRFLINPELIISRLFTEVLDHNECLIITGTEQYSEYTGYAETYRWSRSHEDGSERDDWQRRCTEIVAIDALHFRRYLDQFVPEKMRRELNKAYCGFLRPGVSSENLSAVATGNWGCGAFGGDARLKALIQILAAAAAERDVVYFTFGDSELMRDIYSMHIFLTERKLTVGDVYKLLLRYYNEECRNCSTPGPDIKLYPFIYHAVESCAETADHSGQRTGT

Row | Compound | IC50 (PARG) | IC50 (HCC1806)
1 | N#CC1(NS(=O)(=O)c2cc(N3CCN(C(=O)[C@H]4CCCO4)CC3)c3cnc(-c4nnc(C(F)(F)F)s4)n3c2)CC1 [Example 303, (R)-N-(1-cyanocyclopropyl)-8-(4-(tetrahydrofuran-2-carbonyl)piperazin-1-yl)-3-(5-(trifluoromethyl)-1,3,4-thiadiazol-2-yl)imidazo[1,5-a]pyridine-6-sulfonamide] | 20.9 nM | 435 nM
2 | CC1(NS(=O)(=O)c2cc(N3CCN(C(=O)C4CCO4)CC3)c3cnc(-c4nnc(C(F)(F)F)s4)n3c2)CC1 (stereo not shown) [Example 304, N-(1-methylcyclopropyl)-8-(4-(oxetane-2-carbonyl)piperazin-1-yl)-3-(5-(trifluoromethyl)-1,3,4-thiadiazol-2-yl)imidazo[1,5-a]pyridine-6-sulfonamide] | 3.86 nM | 70 nM
3 | CC1(NS(=O)(=O)c2cc(N3CCC(O)CC3)c3cnc(-c4nnc(C(F)F)s4)n3c2)CC1 [Example 305, 3-(5-(difluoromethyl)-1,3,4-thiadiazol-2-yl)-8-(4-hydroxypiperidin-1-yl)-N-(1-methylcyclopropyl)imidazo[1,5-a]pyridine-6-sulfonamide] | 6.91 nM | 130 nM
4 | C[C@@H]1CN(c2cc(S(=O)(=O)NC3(C)CC3)cn3c(-c4nnc(C(F)(F)F)s4)ncc23)CCN1C(=O)[C@H]1CCN1C [Example 306, 8-((R)-3-methyl-4-((R)-1-methylazetidine-2-carbonyl)piperazin-1-yl)-N-(1-methylcyclopropyl)-3-(5-(trifluoromethyl)-1,3,4-thiadiazol-2-yl)imidazo[1,5-a]pyridine-6-sulfonamide] | 6.11 nM | 89 nM
5 | CC1(NS(=O)(=O)c2cc(N3CCN(C(=O)c4ccc5c(c4)OCO5)CC3)c3cnc(-c4nnc(C(F)(F)F)s4)n3c2)CC1 [Example 307, 8-(4-(benzo[d][1,3]dioxole-5-carbonyl)piperazin-1-yl)-N-(1-methylcyclopropyl)-3-(5-(trifluoromethyl)-1,3,4-thiadiazol-2-yl)imidazo[1,5-a]pyridine-6-sulfonamide] | 4.13 nM | 540 nM
6 | CN(C)C(=O)N1CCN(c2cc(S(=O)(=O)NC3(C)CC3)cn3c(-c4nnc(C(F)F)s4)ncc23)CC1 [Example 308, 4-(3-(5-(difluoromethyl)-1,3,4-thiadiazol-2-yl)-6-(N-(1-methylcyclopropyl)sulfamoyl)imidazo[1,5-a]pyridin-8-yl)-N,N-dimethylpiperazine-1-carboxamide] | 0.73 nM | 104 nM
7 | CN1CC[C@@H]1C(=O)N1CCN(c2cc(S(=O)(=O)NC3(C)CC3)cn3c(-c4nnc(C(F)F)s4)ncc23)CC1 [Example 309, (R)-3-(5-(difluoromethyl)-1,3,4-thiadiazol-2-yl)-8-(4-(1-methylazetidine-2-carbonyl)piperazin-1-yl)-N-(1-methylcyclopropyl)imidazo[1,5-a]pyridine-6-sulfonamide] | 1.03 nM | 570 nM
8 | COC1(C(=O)N2CCN(c3cc(S(=O)(=O)NC4(C)CC4)cn4c(-c5nnc(C(F)F)s5)ncc34)CC2)CN(C)C1 [Example 310, 3-(5-(difluoromethyl)-1,3,4-thiadiazol-2-yl)-8-(4-(3-methoxy-1-methylazetidine-3-carbonyl)piperazin-1-yl)-N-(1-methylcyclopropyl)imidazo[1,5-a]pyridine-6-sulfonamide] | < 0.1 nM | 38 nM
9 | COC1(C(=O)N2CCN(c3cc(S(=O)(=O)NC4(C)CC4)cn4c(-c5nnc(C(F)F)s5)ncc34)CC2)CN(CCF)C1 [Example 312, 3-(5-(difluoromethyl)-1,3,4-thiadiazol-2-yl)-8-(4-(1-(2-fluoroethyl)-3-methoxyazetidine-3-carbonyl)piperazin-1-yl)-N-(1-methylcyclopropyl)imidazo[1,5-a]pyridine-6-sulfonamide] | < 0.1 nM | 6.02 nM
10 | CC1(NS(=O)(=O)c2cc(N3CCN(C(=O)C4(C)CNC4)CC3)c3cnc(-c4nnc(C(F)(F)F)s4)n3c2)CC1 [Example 313, 8-(4-(3-methylazetidine-3-carbonyl)piperazin-1-yl)-N-(1-methylcyclopropyl)-3-(5-(trifluoromethyl)-1,3,4-thiadiazol-2-yl)imidazo[1,5-a]pyridine-6-sulfonamide] | 1.64 nM | 2050 nM
11 | CN1CC(C)(C(=O)N2CCN(c3cc(S(=O)(=O)NC4(C)CC4)cn4c(-c5nnc(C(F)(F)F)s5)ncc34)CC2)C1 [Example 314, 8-(4-(1,3-dimethylazetidine-3-carbonyl)piperazin-1-yl)-N-(1-methylcyclopropyl)-3-(5-(trifluoromethyl)-1,3,4-thiadiazol-2-yl)imidazo[1,5-a]pyridine-6-sulfonamide] | 0.68 nM | 241 nM
12 | C[C@@H]1CN(c2cc(S(=O)(=O)NC3(C)CC3)cn3c(-c4nnc(C(F)F)s4)ncc23)CCN1C(=O)C1CNC1 [Example 315, (R)-8-(4-(azetidine-3-carbonyl)-3-methylpiperazin-1-yl)-3-(5-(difluoromethyl)-1,3,4-thiadiazol-2-yl)-N-(1-methylcyclopropyl)imidazo[1,5-a]pyridine-6-sulfonamide] | 0.96 nM | 5700 nM
13 | CC1(NS(=O)(=O)c2cc(N3CCN(C(=O)[C@@H]4CCCN4)CC3)c3cnc(-c4nnc(C(F)(F)F)s4)n3c2)CC1 [Example 316, (S)-N-(1-methylcyclopropyl)-8-(4-prolylpiperazin-1-yl)-3-(5-(trifluoromethyl)-1,3,4-thiadiazol-2-yl)imidazo[1,5-a]pyridine-6-sulfonamide] | 4.46 nM | 918 nM
14 | CC1(NS(=O)(=O)c2cc(N3CCN(C(=O)C4(F)CNC4)CC3)c3cnc(-c4nnc(C(F)(F)F)s4)n3c2)CC1 [Example 317, 8-(4-(3-fluoroazetidine-3-carbonyl)piperazin-1-yl)-N-(1-methylcyclopropyl)-3-(5-(trifluoromethyl)-1,3,4-thiadiazol-2-yl)imidazo[1,5-a]pyridine-6-sulfonamide] | 3.54 nM | 1140 nM
15 | CNC1(C(=O)N2CCN(c3cc(S(=O)(=O)NC4(C)CC4)cn4c(-c5nnc(C(F)(F)F)s5)ncc34)CC2)CC1 [Example 318, 8-(4-(1-(methylamino)cyclopropane-1-carbonyl)piperazin-1-yl)-N-(1-methylcyclopropyl)-3-(5-(trifluoromethyl)-1,3,4-thiadiazol-2-yl)imidazo[1,5-a]pyridine-6-sulfonamide] | 1.84 nM | 363 nM
16 | CC1(NS(=O)(=O)c2cc(N3CCN(C(=O)[C@H]4CCN4CCCF)CC3)c3cnc(-c4nnc(C(F)(F)F)s4)n3c2)CC1 [Example 319, (R)-8-(4-(1-(3-fluoropropyl)azetidine-2-carbonyl)piperazin-1-yl)-N-(1-methylcyclopropyl)-3-(5-(trifluoromethyl)-1,3,4-thiadiazol-2-yl)imidazo[1,5-a]pyridine-6-sulfonamide] | 5.62 nM | 147 nM
17 | CC1(NS(=O)(=O)c2cc(N3CCN(C(=O)[C@H]4CCN4CCF)CC3)c3cnc(-c4nnc(C(F)(F)F)s4)n3c2)CC1 [Example 320, (R)-8-(4-(1-(2-fluoroethyl)azetidine-2-carbonyl)piperazin-1-yl)-N-(1-methylcyclopropyl)-3-(5-(trifluoromethyl)-1,3,4-thiadiazol-2-yl)imidazo[1,5-a]pyridine-6-sulfonamide] | 2.71 nM | 93.9 nM
